Measured values taken from patent US12545637B2, “Extrahepatic targeted cationic lipid compound with high efficiency and low toxicity and its composition” (BEIJING YOUCARE KECHUANG PHARMACEUTICAL TECHNOLOGY CO., LTD., priority 2023, dated 2026).

Legend:
[1] = Particle size and polydispersity index (PDI) of lipid nanoparticles by dynamic light scattering; type: physicochemical
Experimental: The particle size and polydispersity index (PDI) were determined by dynamic light scattering using Malvern laser particle size analyzer.
10 μL of the liposome solution was weighed, diluted to 1 mL with RNase-free deionized water, and added to the sample pool. Each sample was measured in triplicate. The measurement conditions were: […] scattering angle, and 25° C.

293T cells [2] = assay: Fluorescent detection of Fluc-mRNA (cell transfection efficiency of LNP formulations); type: cell-based
293T cells [3] = assay: Cell survival rate assay (CCK-8); type: cell-based
Method in brief: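 293T cells seeded at 10,000 cells/well, cultured overnight, then exposed 24 h to LNP carrying 1.5 μg Fluc-mRNA (cationic:neutral:structured:PEG-type lipid 49:10:39.5:1.5) or Lipofectamine 3000. Viability read by CCK-8, 1 h incubation, absorbance at 450 nm.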

female BALB/C mice = assay: In vivo imaging in mice of Fluc-mRNA LNP formulations (mRNA expression and duration)
Method in brief: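 Female BALB/C mice (4-6 weeks, 17-19 g) received LNP carrying […] Fluc-mRNA intramuscularly. At 6h, 24 h, 48h and 7d, fluorescent imaging substrate was given intraperitoneally and after 5 minutes average radiance, as a measure of expressed protein, was imaged on an IVIS Spectrum system.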

293T cells [4] = assay: Fluorescent detection of Fluc-mRNA (cell transfection efficiency of LNP formulations); type: cell-based; remark: listed apart in the source

CCCCCCCCC(CCCCCCCC)COC(=O)CCCCCN(CCCO)CCCN(CCCO)CCCCCC(=O)OCC(CCCCCCCC)CCCCCCCC [YK-423, di(2-octyldecyl) 6,6′-(propan-1,3-diyl-bis((3-hydroxypropyl)azanediyl))dihexanoate]
PDI ([1]; LNP formulation of the cationic lipid, 25° C.): 11.7% | Particle size ([1]; LNP formulation of the cationic lipid/DSPC/cholesterol/DMG-PEG2000 49:10:39.5:1.5, 25° C.): 175 nm | Relative light unit (RLU) (293T cells [2]; LNP with 0.3 μg Fluc-mRNA, 96-well plate, 24 hours): 6227115 RLU | cell transfection efficiency, times that of YK-415 (293T cells [2]; ratio vs YK-415): 20.89 | cell transfection efficiency, times that of YK-417 (293T cells [2]; ratio vs YK-417): 53.09 | cell transfection efficiency, times that of YK-418 (293T cells [2]; ratio vs YK-418): 55.97 | cell transfection efficiency, times that of YK-424 (293T cells [2]; ratio vs YK-424): 2.16 | RLU value, times that of compound 21 (293T cells [2]; ratio vs compound 21): 4.12 | RLU value, times that of compound 23 (293T cells [2]; ratio vs compound 23): 4.44 | Cell survival rate (293T cells [3]; LNP with 1.5 μg Fluc-mRNA, 24 hours, CCK-8): 71.14% | cell survival rate higher than ALC-0315 (293T cells [3]; difference vs ALC-0315): 23.93% | cell survival rate higher than HIMA (293T cells [3]; difference vs HIMA (HHMA)): 6.87% | cell survival rate higher than Lipofectamine 3000 (293T cells [3]; difference vs Lipofectamine 3000): 49.48% | cell survival rate higher than SM-102 (293T cells [3]; difference vs SM-102): 3.24% | cell survival rate higher than YK-404 (293T cells [3]; difference vs YK-404): 29.02% | cell survival rate higher than YK-405 (293T cells [3]; difference vs YK-405): 29.28% | cell survival rate higher than YK-406 (293T cells [3]; difference vs YK-406): 46.18% | cell survival rate higher than YK-408 (293T cells [3]; difference vs YK-408): 28.83% | cell survival rate higher than YK-409 (293T cells [3]; difference vs YK-409): 25.03% | cell survival rate higher than YK-410 (293T cells [3]; difference vs YK-410): 26.22% | cell survival rate higher than YK-411 (293T cells [3]; difference vs YK-411): 54.81% | cell survival rate higher than YK-412 (293T cells [3]; difference vs YK-412): 17.00% | cell survival rate higher than YK-413 (293T cells [3]; difference vs YK-413): 23.94% | cell survival rate higher than YK-414 (293T cells [3]; difference vs YK-414): 42.39% | cell survival rate higher than YK-415 (293T cells [3]; difference vs YK-415): 9.98% | cell survival rate higher than YK-416 (293T cells [3]; difference vs YK-416): 30.17% | cell survival rate higher than YK-417 (293T cells [3]; difference vs YK-417): 49.80% | cell survival rate higher than YK-418 (293T cells [3]; difference vs YK-418): 50.09% | cell survival rate higher than YK-419 (293T cells [3]; difference vs YK-419): 32.22% | cell survival rate higher than YK-420 (293T cells [3]; difference vs YK-420): 35.55% | cell survival rate higher than YK-421 (293T cells [3]; difference vs YK-421): 35.43% | cell survival rate higher than YK-424 (293T cells [3]; difference vs YK-424): 43.21% | cell survival rate higher than compound 21 (293T cells [3]; difference vs compound 21): 3.30% | cell survival rate higher than compound 23 (293T cells [3]; difference vs compound 23): 2.03% | cytotoxicity reduced compared with YK-411 (293T cells [3]; rounded summary statement vs YK-411): 50% | average radiation intensity, times that of ALC-0315 (female BALB/C mice; 6 h): 1.94 | average radiation intensity, times that of HHMA (female BALB/C mice; 6 h): 2.46 | average radiation intensity, times that of SM-102 (female BALB/C mice; 6 h): 2.35 | average radiation intensity, times that of compound 21 (female BALB/C mice; 6 h): 2.71 | average radiation intensity, times that of compound 23 (female BALB/C mice; 6 h): 2.80 | expression amount in mice, times that of YK-415 (female BALB/C mice; 6 h): 13.81 | expression amount in mice, times that of YK-417 (female BALB/C mice; 6 h): 26.91 | mRNA expression in mice, times that of YK-411 (female BALB/C mice; 6 h): 278.19 | average radiation intensity, times that of ALC-0315 (female BALB/C mice; 24 h): 3.99 | average radiation intensity, times that of HHMA (female BALB/C mice; 24 h): 6.30 | average radiation intensity, times that of SM-102 (female BALB/C mice; 24 h): 6.13 | average radiation intensity, times that of compound 21 (female BALB/C mice; 24 h): 6.81 | average radiation intensity, times that of compound 23 (female BALB/C mice; 24 h): 7.49 | expression amount in mice, times that of YK-415 (female BALB/C mice; 24 h): 11.73 | expression amount in mice, times that of YK-417 (female BALB/C mice; 24 h): 37.85 | mRNA expression in mice, times that of YK-411 (female BALB/C mice; 24 h): 374.12 | average radiation intensity, times that of ALC-0315 (female BALB/C mice; 48 h): 8.73 | average radiation intensity, times that of HHMA (female BALB/C mice; 48 h): 10.50 | average radiation intensity, times that of SM-102 (female BALB/C mice; 48 h): 10.65 | average radiation intensity, times that of compound 21 (female BALB/C mice; 48 h): 11.10 | average radiation intensity, times that of compound 23 (female BALB/C mice; 48 h): 10.64 | expression amount in mice, times that of YK-415 (female BALB/C mice; 48 h): 22.17 | expression amount in mice, times that of YK-417 (female BALB/C mice; 48 h): 49.70 | mRNA expression in mice, times that of YK-411 (female BALB/C mice; 48 h): 359.10 | average radiation intensity, times that of ALC-0315 (female BALB/C mice; 7 d): 1.44 | average radiation intensity, times that of HHMA (female BALB/C mice; 7 d): 1.69 | average radiation intensity, times that of SM-102 (female BALB/C mice; 7 d): 1.50 | average radiation intensity, times that of compound 21 (female BALB/C mice; 7 d): 1.58 | average radiation intensity, times that of compound 23 (female BALB/C mice; 7 d): 1.65 | expression amount in mice, times that of YK-415 (female BALB/C mice; 7 d): 2.50 | expression amount in mice, times that of YK-417 (female BALB/C mice; 7 d): 4.42 | mRNA expression in mice, times that of YK-411 (female BALB/C mice; 7 d): 21.03 | average radiation intensity, 6 h (female BALB/C mice; Fluc-mRNA LNP intramuscular, 6 h after administration): 1627420 | average radiation intensity, 24 h (female BALB/C mice; Fluc-mRNA LNP intramuscular, 24 h after administration): 756472 | average radiation intensity, 48 h (female BALB/C mice; Fluc-mRNA LNP intramuscular, 48 h after administration): 350120 | average radiation intensity, 7 d (female BALB/C mice; Fluc-mRNA LNP intramuscular, 7 d after administration): 10093 | RLU value, times that of ALC-0315 (293T cells [4]; ratio vs ALC-0315): 2.84 | RLU value, times that of HHMA (293T cells [4]; ratio vs HHMA): 3.00 | RLU value, times that of Lipofectamine 3000 (293T cells [4]; ratio vs Lipofectamine 3000): 5.19 | RLU value, times that of YK-009 (293T cells [4]; ratio vs YK-009): 1.21 | RLU value, times that of YK-405 (293T cells [4]; ratio vs YK-405): 1.95 | RLU value, times that of YK-406 (293T cells [4]; ratio vs YK-406): 79.58 | RLU value, times that of YK-408 (293T cells [4]; ratio vs YK-408): 4.22 | RLU value, times that of YK-409 (293T cells [4]; ratio vs YK-409): 9.30 | RLU value, times that of YK-410 (293T cells [4]; ratio vs YK-410): 15.27 | cell transfection efficiency, times that of YK-412 (293T cells [4]; ratio vs YK-412): 1.85 | cell transfection efficiency, times that of YK-413 (293T cells [4]; ratio vs YK-413): 4.52 | cell transfection efficiency, times that of YK-414 (293T cells [4]; ratio vs YK-414): 14.02 | cell transfection efficiency, times that of YK-416 (293T cells [4]; ratio vs YK-416): 1.57 | cell transfection efficiency, times that of YK-419 (293T cells [4]; ratio vs YK-419): 1.97 | cell transfection efficiency, times that of YK-420 (293T cells [4]; ratio vs YK-420): 1.55 | cell transfection efficiency, times that of YK-421 (293T cells [4]; ratio vs YK-421): 13.35
